Read-outs that look alike come from different tables or passages of the source.
Tests used:
soybean [1] = assay: Foliar application to soybean in growth room, plant height (non-stress, heat and water deficit stress); assay type: in vivo; conditions: 300 nM + 0.1% ALLIGARE SURFACE
Procedure: Ec.Flg22 (SEQ ID NO: 527) was applied to soybean (Beck's 297NR).
Plant height (cm) was measured just prior to the foliar application delivered at 3 weeks and then again 2 weeks later when the plants were 5-weeks-old. Two replicate trials were conducted using 18 plants per trial.
Soybean plants were grown as described in Example 6. The At.PSKα polypeptide (SEQ ID NO: 598) was applied as a foliar spray to the plants at the V1-V4 stage. Soybean plants treated with foliar applications of At.PSKα and control plants treated with water and surfactant alone were then grown in conditions described in Examples 7-9 that produced a non-stress and stress (heat and water deficit) environments. Table 37 describes the percentage change or increase in height reported for soybean plants treated with At.PSKα as a foliar spray at the V1-V4 growth stage.
RHPP bioactive priming polypeptide (SEQ ID NO: 600) was also applied as foliar treatment to R1 stage hybrid soybean (Beck's 297R4) with 0.1% (v/v) non-ionic surfactant ([…] SURFACE) using a spray bottle delivering approximately 1.2 ml/plant. This experiment was performed to look at the effects of RHPP on plant growth and was conducted using a total of 18 plants per treatment group. […] R1 stage soybean plants were treated with nothing (non-treated control), […] SURFACE surfactant applied at a concentration of 0.1% (v/v) or the RHPP polypeptide (300 nM) applied in combination with […] SURFACE surfactant (0.1% v/v). Height for each plant was recorded at the time of spray and again at 16 days post foliar application and average growth parameters were compared between foliar treatments (Table 39).

soybean [2] = assay: Soybean nodulation, root biomass and total biomass after foliar application; assay type: in vivo
Procedure: Effective nodulation of soybean roots result in higher yields and higher quality seed production, protein and oil per seed or acre basis. This could be due to increased nitrogen fixation since nodulale formation increases nitrogen fixation. To determine whether root hair promoting bioactive priming polypeptide, RHPP (SEQ ID NO: 600) could modulate root biomass and nodulation and thereby improve nitrogen fixation, soybean plants (hybrid Morsoy 38X52 and Beck's hybrid 297R4) were treated with foliar application of RHPP (300 nM) at the R1-R2 stage of development.
RHPP bioactive priming polypeptide (SEQ ID NO: 600, originally derived from Glycine max) was applied as foliar treatment to 4-week-old hybrid soybean (Morsoy variety) with 0.1% (v/v) non-ionic surfactant ([…] SURFACE™) using a spray bottle and delivering approximately 1.25 ml/plant. The experiment was conducted using a total of 8 plants per trial per treatment group. […] Growth parameters of nodule counts, root biomass and total biomass per plant were measured at 15 days post the foliar application and compared between the foliar treatments consisting of […] SURFACE surfactant (0.1% v/v) as a control and the RHPP polypeptide (300 nM) containing the […] SURFACE surfactant (0.1% v/v). Average growth parameters as described were normalized to the control plants that received the surfactant alone treatment (Table 38).

[3] = test system: reactive oxygen species (ROS) production in Kiwi 'Hayward' leaf petioles; assay: ROS activity assay in kiwi leaf petioles; assay type: cell-based, Actinidiae deliciosa; conditions: 100 nM peptide; Kiwi 'Hayward' leaf petiole slices; 40 minutes time course
Procedure: To test the sensitivity of kiwi leaves to 22-amino acid fragments of flagellin, 1 mm slices were cut through Actinidiae deliciosa Kiwi ‘Hayward’ leaf petioles and floated in 150 μL of water in a 96-well plate, with one slice per well. […] In two independent experiments, a total of 6 kiwi leaf petiole samples were treated with each Flg22 polypeptide in Table 94. The average total RLU and standard error of the means (SEM) was calculated for each treatment. A two-tailed T-test was used to determine significance at the 90% confidence level (P<0.1) between treatments. Relative ROS production was determined for each polypeptide in comparison to total RLUs for the 100 nM Bt.4Q7Flg22 control.

corn = assay: Seed treatment of corn, field yield trials; assay type: in vivo; conditions: for yield increase vs non-treated seed: 2 hybrids; for Average Yield Bu/Ac / Average Change in Bu/Ac compared to Untreated Control: seed treatment on base ST, BECK's 5828YX; for Average Yield Bu/Ac: 1 location, four replicated trials; for Average Total Yield Bu/Ac Hybrid 1 / Average Total Yield Bu/Ac Hybrid 1 and 2 / Average Total Yield Bu/Ac Hybrid 2: seed treatment
citrus trees [4] = conditions: for Flush length (% of control) / Average Flush Length (inches): injected April 2017, measured May 2018; for more new branch growth than untreated control: orange
[5] = test system: reactive oxygen species (ROS) production in Arabidopsis leaf tissue; assay: ROS activity assay in Arabidopsis leaf tissue; assay type: cell-based, Arabidopsis thaliana; conditions: 100 nM each polypeptide, negative control (water) 82896
Procedure: Elf18 and Elf26 polypeptides derived from the consensus Bacillus cereus Elongation Factor-TU (EF-Tu) protein were tested for ability to produce a ROS response in corn (hybrid 5828 YX), soy (variety Morsoy), and Arabidopsis thaliana. Polypeptides were synthesized by Genscript USA (Piscataway, N.J.) using standard solid-phase synthesis methods and provided as a lyophilized powder with greater than or equal to 70% purity. Dry powder was re-suspended to a concentration of 10 mM in ultrapure water, and then serially diluted in ultrapure water to the concentrations tested in the ROS assay in Table 98.
For the ROS assay, Arabidopsis leaves were excised from 4-week-old plants, and using a cork borer 4 mm disks were removed from the leaves. Each disc was cut in half using the edge of a razor blade, and then each disc half was floated on 150 μL of water abaxial side touching the water in a 96-well plate to rest overnight. The next day, the water was removed from each well just prior to polypeptide treatment. RLU values and relative ROS activity was reported as the average of 4 measurements.

citrus trees [6] = assay type: in vivo, Citrus sinensis; Citrus×paradisi; conditions: Valencia orange and Ruby Red grapefruit, 1× and 10× injection April 2017, measured June 2018
[7] = 300 nM + 0.1% v/v ALLIGARE SURFACE, Morsoy soybean, 15 days post application
[8] = 300 nM + 0.1% v/v ALLIGARE SURFACE, Morsoy soybean, 15 days post foliar application, n = 8
[9] = 300 nM, Morsoy, 15 days post application
[10] = polypeptide 0.25 μM (cellobiose 1 mM where combined)
[11] = polypeptide 1.0 μM (cellobiose 1 mM where combined)
[12] = 0.25 μM in seed coating slurry (0.035 fl oz of 40 μM peptide solution/unit)
[13] = 1.0 μM in seed coating slurry (0.14 fl oz of 40 μM peptide solution/unit)

GGIRAAPTGNER (Glycine max) [RHPP, Root Hair Promoting Peptide from Glycine max]
plant height and change in plant height vs surfactant alone and non-treated (soybean [1]; R1, 16 days post application): increased plant growth (plant height) | Height (cm) (soybean [1]; soybean Beck's 297R4, R1 stage, 16 days post foliar application, n = 18): 19.9 cm | Change in height (cm) (soybean [1]; soybean Beck's 297R4, R1 stage, spray to 16 days post application, n = 18): 4.6 cm | Average nodule count per plant, RHPP treatment normalized as a percentage of the surfactant control (soybean [2]; [7]): 170.42% | Root biomass, RHPP treatment normalized as a percentage of the surfactant control (soybean [2]; [7]): 120.57% | Total biomass, RHPP treatment normalized as a percentage of the surfactant control (soybean [2]; [7]): 108.44% | Average nodule count per plant (soybean [2]; [8]): 15.13 | Root biomass (soybean [2]; [8]): 2.13 g | Total biomass (soybean [2]; [8]): 46.24 g | increase in root biomass normalized to control (soybean [2]; [9]): more than 20% | increase in total biomass normalized to control (soybean [2]; [9]): 8% | number of nodules per plant vs surfactant control (soybean [2]; [9]): approximately two times the number of nodules

Bt.4Q7Flg22: Flg22 polypeptide (22 amino acids) from flagellin of Bacillus thuringiensis strain 4Q7 (DRLSSGKRINSASDDAAGLAIA; listed as Bacillus thuringiensis)
Average Total Relative Light Units (RLUs); SEM in parentheses [3]: 47,457 RLU | yield gain vs base seed treatment only (corn; 1 uM in slurry, 3 hybrids, 8 locations): 4.73 Bu/Ac | yield increase vs non-treated seed (corn; high rate, 1.0 μM slurry (0.14 Fl. oz per unit), 12 locations): 5.3 Bu/Ac | yield increase vs non-treated seed (corn; low rate, 0.25 μM slurry (0.035 Fl. oz per unit), 12 locations): 2.1 Bu/Ac | win rate (corn; second study, 12 locations): 50% | yield advantage (corn; second study, 12 locations): 2.8 Bu/Ac | Average Yield Bu/Ac (corn; [10]): 47.06 Bu/Ac | Average Yield Bu/Ac (corn; [11]): 29.60 Bu/Ac | Average Change in Bu/Ac compared to Untreated Control (corn; [10]): +19.07 Bu/Ac | Average Change in Bu/Ac compared to Untreated Control (corn; [11]): +1.60 Bu/Ac | Average Total Yield Bu/Ac Hybrid 1 (corn; [12]): 218.36 Bu/Ac | Average Total Yield Bu/Ac Hybrid 1 and 2 (corn; [12]): 200.62 Bu/Ac | Average Total Yield Bu/Ac Hybrid 2 (corn; [12]): 182.88 Bu/Ac | Average Total Yield Bu/Ac Hybrid 1 (corn; [13]): 213.44 Bu/Ac | Average Total Yield Bu/Ac Hybrid 1 and 2 (corn; [13]): 202.62 Bu/Ac | Average Total Yield Bu/Ac Hybrid 2 (corn; [13]): 187.48 Bu/Ac | phytotoxicity after trunk injection (citrus trees [4]; 1× or 10× rate): no phytotoxicity occurred | average new shoot length (citrus trees [4]; Hamlin and Vernia orange, trunk injection, two months after treatment): 3.84 inches | shoot length vs untreated control (printed as % longer) (citrus trees [4]; Hamlin and Vernia orange, two months after trunk injection or foliar spray): 25% | Flush length (% of control) (citrus trees [4]; Red Grapefruit, 1X, 0.138 μM): 135% | Average Flush Length (inches) (citrus trees [4]; Red Grapefruit, 1X, 0.138 μM, control 8.05): 10.83 inches | Flush length (% of control) (citrus trees [4]; Red Grapefruit, 10X, 1.38 μM): 113% | Average Flush Length (inches) (citrus trees [4]; Red Grapefruit, 10X, 1.38 μM, control 8.05): 9.13 inches | Flush length (% of control) (citrus trees [4]; Valencia Orange, 1X, 0.138 μM): 184% | Average Flush Length (inches) (citrus trees [4]; Valencia Orange, 1X, 0.138 μM, control 7.23): 13.33 inches | Flush length (% of control) (citrus trees [4]; Valencia Orange, 10X, 1.38 μM): 170% | Average Flush Length (inches) (citrus trees [4]; Valencia Orange, 10X, 1.38 μM, control 7.23): 12.29 inches | more new branch growth than untreated control (citrus trees [4]; 1× injection): 85% | more new branch growth than untreated control (citrus trees [4]; 1× injection April 2017, measured May 2018): 6.1 inches | Average RLU value [5]: 258073 RLU | fruit per limb and fruit size vs untreated control (citrus trees [6]): increased fruit per limb and increased fruit size

From patent publication US12268727B2, “Bioactive polypeptides for improvements in plant protection, growth and productivity” (priority 2017, dated 2025)
